Measured values from ChEMBL document CHEMBL1208739, “Synthesis and SAR of azolopyrimidines as potent and selective dipeptidyl peptidase-4 (DPP4) inhibitors for type 2 diabetes” (Bioorg Med Chem Lett, 2010).

What was measured:
Dipeptidyl peptidase 9 = Dipeptidyl peptidase 9 (Homo sapiens, UniProt Q86TI2); experiment: Inhibition of human DPP89
Dipeptidyl peptidase 8 = Dipeptidyl peptidase 8 (Homo sapiens, UniProt Q6V1X1); experiment: Inhibition of human DPP8
Cytochrome P450 1A2 = target: T1, Cytochrome P450 1A2 (Homo sapiens, UniProt P05177); experiment: inhibition of CYP1A2; assay type: ADME
T1 sequence (P05177 whole entry): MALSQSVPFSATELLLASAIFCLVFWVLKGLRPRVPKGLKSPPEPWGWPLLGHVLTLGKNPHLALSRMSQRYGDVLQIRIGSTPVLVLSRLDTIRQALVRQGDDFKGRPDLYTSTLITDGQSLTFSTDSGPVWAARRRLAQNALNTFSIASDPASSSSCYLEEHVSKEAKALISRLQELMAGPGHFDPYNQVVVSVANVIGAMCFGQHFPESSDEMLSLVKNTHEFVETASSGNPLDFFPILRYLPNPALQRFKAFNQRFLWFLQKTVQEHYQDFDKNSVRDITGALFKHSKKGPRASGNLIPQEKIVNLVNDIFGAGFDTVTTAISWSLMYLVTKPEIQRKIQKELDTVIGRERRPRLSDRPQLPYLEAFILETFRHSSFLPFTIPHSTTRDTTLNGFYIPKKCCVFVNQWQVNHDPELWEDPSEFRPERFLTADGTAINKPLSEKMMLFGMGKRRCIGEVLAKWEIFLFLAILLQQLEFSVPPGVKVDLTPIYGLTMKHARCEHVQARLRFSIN

Cytochrome P450 3A4 = Cytochrome P450 3A4 (Homo sapiens, UniProt P08684); experiment: inhibition of CYP3A4; assay type: ADME
Cytochrome P450 2C19 = Cytochrome P450 2C19 (Homo sapiens, UniProt P33261); experiment: inhibition of CYP2C19; assay type: ADME
[1] = target: Voltage-gated inwardly rectifying potassium channel KCNH2 (Homo sapiens, UniProt Q12809); experiment: Inhibition of human ERG
Cytochrome P450 2C9 = Cytochrome P450 2C9 (Homo sapiens, UniProt P11712); experiment: inhibition of CYP2C9; assay type: ADME
Mus musculus [2] = experiment: Antidiabetic activity in ob/ob mouse assessed as increase in mean insulin level at 3 umol/kg, po measured after 15 mins of glucose challenge by oral glucose tolerance test; assay type: functional
Mus musculus [3] = experiment: Antidiabetic activity in ob/ob mouse assessed as increase in mean insulin level at 10 umol/kg, po measured after 15 mins of glucose challenge by oral glucose tolerance test; assay type: functional

Sequence of Dipeptidyl peptidase 8 (Q6V1X1 whole entry): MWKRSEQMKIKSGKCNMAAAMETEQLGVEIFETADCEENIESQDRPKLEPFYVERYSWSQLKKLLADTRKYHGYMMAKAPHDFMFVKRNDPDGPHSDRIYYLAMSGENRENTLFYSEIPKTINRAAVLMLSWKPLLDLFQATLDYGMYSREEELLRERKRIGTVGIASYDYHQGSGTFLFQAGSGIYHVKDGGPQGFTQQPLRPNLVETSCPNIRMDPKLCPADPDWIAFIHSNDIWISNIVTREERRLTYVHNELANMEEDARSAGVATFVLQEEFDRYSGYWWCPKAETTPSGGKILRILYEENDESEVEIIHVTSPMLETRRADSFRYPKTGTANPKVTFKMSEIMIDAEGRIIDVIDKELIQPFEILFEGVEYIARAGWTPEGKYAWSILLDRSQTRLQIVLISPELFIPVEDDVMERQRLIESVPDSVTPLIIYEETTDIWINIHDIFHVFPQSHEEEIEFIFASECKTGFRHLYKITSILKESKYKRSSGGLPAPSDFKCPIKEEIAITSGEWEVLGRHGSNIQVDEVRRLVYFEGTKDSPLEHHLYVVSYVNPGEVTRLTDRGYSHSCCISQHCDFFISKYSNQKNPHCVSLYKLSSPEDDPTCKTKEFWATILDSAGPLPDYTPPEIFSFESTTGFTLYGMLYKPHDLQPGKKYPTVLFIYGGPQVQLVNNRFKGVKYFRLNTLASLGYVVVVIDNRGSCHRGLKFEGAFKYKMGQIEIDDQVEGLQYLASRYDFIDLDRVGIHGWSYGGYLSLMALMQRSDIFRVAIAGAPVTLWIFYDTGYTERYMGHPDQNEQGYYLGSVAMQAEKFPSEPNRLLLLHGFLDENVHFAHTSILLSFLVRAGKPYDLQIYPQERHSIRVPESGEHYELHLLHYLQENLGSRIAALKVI
Sequence of Voltage-gated inwardly rectifying potassium channel KCNH2 (Q12809 whole entry): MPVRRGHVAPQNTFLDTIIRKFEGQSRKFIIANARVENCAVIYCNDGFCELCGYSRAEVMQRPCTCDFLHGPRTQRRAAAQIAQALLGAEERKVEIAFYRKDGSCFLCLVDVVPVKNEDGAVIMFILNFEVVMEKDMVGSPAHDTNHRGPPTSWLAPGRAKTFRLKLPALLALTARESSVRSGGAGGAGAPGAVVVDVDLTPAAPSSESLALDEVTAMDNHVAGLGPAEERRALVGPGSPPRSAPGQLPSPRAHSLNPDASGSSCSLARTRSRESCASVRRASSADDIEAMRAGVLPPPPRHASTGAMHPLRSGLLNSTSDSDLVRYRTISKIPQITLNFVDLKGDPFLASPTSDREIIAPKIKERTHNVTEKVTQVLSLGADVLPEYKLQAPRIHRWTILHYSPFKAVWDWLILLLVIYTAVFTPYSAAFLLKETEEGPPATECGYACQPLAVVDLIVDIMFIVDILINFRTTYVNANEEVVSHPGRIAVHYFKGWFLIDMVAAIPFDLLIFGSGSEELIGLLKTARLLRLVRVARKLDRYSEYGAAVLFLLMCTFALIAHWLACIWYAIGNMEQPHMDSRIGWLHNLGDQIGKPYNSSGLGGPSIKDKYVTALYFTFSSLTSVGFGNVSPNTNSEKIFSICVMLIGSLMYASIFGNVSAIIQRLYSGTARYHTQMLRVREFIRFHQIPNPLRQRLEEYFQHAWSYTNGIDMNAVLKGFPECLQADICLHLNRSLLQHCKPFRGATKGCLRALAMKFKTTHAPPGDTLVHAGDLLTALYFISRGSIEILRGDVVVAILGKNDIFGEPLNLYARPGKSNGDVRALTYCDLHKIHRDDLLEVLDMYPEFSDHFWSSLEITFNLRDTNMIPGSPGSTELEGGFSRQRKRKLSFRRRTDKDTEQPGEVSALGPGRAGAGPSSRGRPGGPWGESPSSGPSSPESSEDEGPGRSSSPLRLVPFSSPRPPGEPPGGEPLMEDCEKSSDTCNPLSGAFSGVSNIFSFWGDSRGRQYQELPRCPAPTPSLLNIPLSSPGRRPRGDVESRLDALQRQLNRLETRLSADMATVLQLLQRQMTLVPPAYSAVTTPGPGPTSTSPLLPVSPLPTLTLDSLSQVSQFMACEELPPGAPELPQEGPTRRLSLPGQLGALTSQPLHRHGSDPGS
Sequence of Dipeptidyl peptidase 9 (Q86TI2 whole entry): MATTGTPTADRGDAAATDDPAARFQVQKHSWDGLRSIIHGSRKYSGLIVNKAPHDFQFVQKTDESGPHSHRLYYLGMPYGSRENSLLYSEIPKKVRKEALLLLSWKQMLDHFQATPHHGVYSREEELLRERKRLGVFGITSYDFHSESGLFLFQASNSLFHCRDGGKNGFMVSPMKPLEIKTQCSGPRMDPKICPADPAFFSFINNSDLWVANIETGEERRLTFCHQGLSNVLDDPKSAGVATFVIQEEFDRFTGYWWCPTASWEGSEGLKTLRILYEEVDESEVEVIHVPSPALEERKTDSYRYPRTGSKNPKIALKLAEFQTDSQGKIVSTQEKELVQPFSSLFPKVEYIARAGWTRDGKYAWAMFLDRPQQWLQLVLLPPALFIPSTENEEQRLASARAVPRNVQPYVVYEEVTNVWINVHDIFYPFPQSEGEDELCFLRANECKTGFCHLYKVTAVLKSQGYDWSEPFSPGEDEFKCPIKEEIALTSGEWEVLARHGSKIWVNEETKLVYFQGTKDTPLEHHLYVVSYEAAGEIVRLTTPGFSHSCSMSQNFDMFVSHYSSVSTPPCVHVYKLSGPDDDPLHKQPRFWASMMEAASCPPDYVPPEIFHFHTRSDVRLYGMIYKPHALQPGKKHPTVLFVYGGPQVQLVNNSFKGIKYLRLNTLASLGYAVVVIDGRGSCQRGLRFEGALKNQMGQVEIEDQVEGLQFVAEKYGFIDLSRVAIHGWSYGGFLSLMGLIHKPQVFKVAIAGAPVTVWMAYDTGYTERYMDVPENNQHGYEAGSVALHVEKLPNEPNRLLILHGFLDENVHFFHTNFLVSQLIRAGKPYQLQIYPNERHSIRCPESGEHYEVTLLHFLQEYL
Sequence of Cytochrome P450 2C19 (P33261 whole entry): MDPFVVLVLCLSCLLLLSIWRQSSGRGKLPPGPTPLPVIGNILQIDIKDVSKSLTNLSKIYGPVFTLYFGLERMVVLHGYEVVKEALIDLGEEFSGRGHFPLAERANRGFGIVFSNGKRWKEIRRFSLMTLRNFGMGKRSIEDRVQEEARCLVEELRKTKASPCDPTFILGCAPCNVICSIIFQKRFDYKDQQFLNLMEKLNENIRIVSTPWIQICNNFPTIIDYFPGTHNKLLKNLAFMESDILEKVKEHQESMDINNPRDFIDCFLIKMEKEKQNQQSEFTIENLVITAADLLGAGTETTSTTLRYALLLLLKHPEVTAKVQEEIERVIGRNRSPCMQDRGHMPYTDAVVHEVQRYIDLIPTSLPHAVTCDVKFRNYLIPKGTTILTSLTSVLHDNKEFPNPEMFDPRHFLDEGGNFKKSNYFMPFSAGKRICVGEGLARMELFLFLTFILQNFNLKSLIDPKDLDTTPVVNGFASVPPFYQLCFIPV
Sequence of Cytochrome P450 2C9 (P11712 whole entry): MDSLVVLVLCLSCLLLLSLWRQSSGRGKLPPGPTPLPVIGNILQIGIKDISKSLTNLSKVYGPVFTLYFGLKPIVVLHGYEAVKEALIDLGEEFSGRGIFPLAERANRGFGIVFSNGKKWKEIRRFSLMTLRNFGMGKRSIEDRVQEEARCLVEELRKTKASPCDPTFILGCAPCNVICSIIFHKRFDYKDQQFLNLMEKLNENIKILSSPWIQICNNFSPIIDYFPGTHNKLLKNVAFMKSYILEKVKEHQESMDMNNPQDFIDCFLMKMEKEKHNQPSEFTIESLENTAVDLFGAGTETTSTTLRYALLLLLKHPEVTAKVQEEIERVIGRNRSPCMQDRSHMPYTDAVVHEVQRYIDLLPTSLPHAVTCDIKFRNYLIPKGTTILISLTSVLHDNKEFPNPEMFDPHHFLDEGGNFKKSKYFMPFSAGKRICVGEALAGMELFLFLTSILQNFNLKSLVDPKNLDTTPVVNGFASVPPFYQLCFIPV
Sequence of Cytochrome P450 3A4 (P08684 whole entry): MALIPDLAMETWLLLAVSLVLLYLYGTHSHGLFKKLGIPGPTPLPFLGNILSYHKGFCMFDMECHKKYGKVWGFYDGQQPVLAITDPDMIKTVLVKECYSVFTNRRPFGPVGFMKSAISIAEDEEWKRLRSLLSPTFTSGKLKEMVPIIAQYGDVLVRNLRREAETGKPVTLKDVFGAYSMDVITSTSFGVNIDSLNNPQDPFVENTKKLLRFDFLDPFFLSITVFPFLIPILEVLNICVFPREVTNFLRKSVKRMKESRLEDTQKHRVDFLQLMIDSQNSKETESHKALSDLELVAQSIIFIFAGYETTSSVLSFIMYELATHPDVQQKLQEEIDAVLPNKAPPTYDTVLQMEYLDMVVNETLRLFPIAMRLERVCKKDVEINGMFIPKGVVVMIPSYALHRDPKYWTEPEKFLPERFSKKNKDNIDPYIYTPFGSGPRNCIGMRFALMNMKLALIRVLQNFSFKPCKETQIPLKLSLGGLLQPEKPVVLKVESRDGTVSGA

| Compound | Ki (Dipeptidyl peptidase 9) [µM] | Ki (Dipeptidyl peptidase 8) [µM] | other results |
| --- | --- | --- | --- |
| CCC(=O)c1cnn2c(-c3ccc(Cl)cc3Cl)c(CN)c(C)nc12 | > 30 | > 30 |  |
| COC(=O)c1nc2nc(C)c(CN)c(-c3ccc(Cl)cc3Cl)n2n1 | > 30 | > 30 |  |
| Cc1nc2nc(C(=O)Nc3ccccc3)nn2c(-c2ccc(Cl)cc2Cl)c1CN | > 10 |  |  |
| CCN(CC)c1nc2nc(C)c(CN)c(-c3ccc(Cl)cc3Cl)n2n1 | > 30 | > 30 |  |
| CCN(C)c1nc2nc(C)c(CN)c(-c3ccc(Cl)cc3Cl)n2n1 | > 30 | > 30 |  |
| COCCN(C)c1nc2nc(C)c(CN)c(-c3ccc(Cl)cc3Cl)n2n1 | > 30 |  |  |
| Cc1nc2nc(N3CCCC3)nn2c(-c2ccc(Cl)cc2Cl)c1CN | > 30 | > 10 |  |
| Cc1nc2nc(N3CCOCC3)nn2c(-c2ccc(Cl)cc2Cl)c1CN | > 30 |  |  |
| Cc1nc2nc(N3CCSCC3)nn2c(-c2ccc(Cl)cc2Cl)c1CN | > 30 | > 30 |  |
| Cc1nc2nc(N3CCN(C(=O)OC(C)(C)C)CC3)nn2c(-c2ccc(Cl)cc2Cl)c1CN | > 30 | > 30 |  |
| Cc1nc2nc(N3CCNCC3)nn2c(-c2ccc(Cl)cc2Cl)c1CN | > 30 | > 30 |  |
| Cc1nc2nccn2c(-c2ccc(Cl)cc2Cl)c1CN | > 30 | > 30 |  |

Further lines, with some results ahead:

| Ki (Dipeptidyl peptidase 9) [µM] | Ki (Dipeptidyl peptidase 8) [µM] | Compound | other results |
| --- | --- | --- | --- |
| > 10 |  | COc1ccccc1-c1cn2c(-c3ccc(Cl)cc3Cl)c(CN)c(C)nc2n1 |  |
| > 30 | > 30 | Cc1cc2nc(C)c(CN)c(-c3ccc(Cl)cc3Cl)n2n1 |  |
| > 30 | > 30 | Cc1nc2c(-c3ccccc3)cnn2c(-c2ccc(Cl)cc2Cl)c1CN |  |
| > 20 | > 30 | Cc1nc2cc(-c3ccccc3)nn2c(-c2ccc(Cl)cc2Cl)c1CN | IC50 (Cytochrome P450 1A2): 6 µM; IC50 (Cytochrome P450 3A4): 1 µM; IC50 (Cytochrome P450 2C19): 3 µM; inhibition (INH) [1]: 95%; IC50 (Cytochrome P450 2C9): 12 µM |
| > 30 | > 30 | Cc1nc2cc(-c3ccco3)nn2c(-c2ccc(Cl)cc2Cl)c1CN |  |
| > 30 |  | Cc1nc2cc(-c3ccc(Cl)cc3)nn2c(-c2ccc(Cl)cc2Cl)c1CN |  |
| > 10 | > 30 | Cc1ccc(-c2cc3nc(C)c(CN)c(-c4ccc(Cl)cc4Cl)n3n2)cc1 |  |
| > 30 | > 30 | Cc1nc2nc(C)c(CN)c(-c3ccc(Cl)cc3Cl)n2n1 |  |
| > 30 | > 30 | Cc1nc2nc(-c3ccccc3)nn2c(-c2ccc(Cl)cc2Cl)c1CN | inhibition (INH) [1]: 85% |
| > 30 | > 30 | Cc1nc2nc(-c3ccccc3)cn2c(-c2ccc(Cl)cc2Cl)c1CN | IC50 (Cytochrome P450 1A2; read-out: IC50): 19 µM; IC50 (Cytochrome P450 3A4): 1 µM; Activity (Mus musculus [2]): 51%; IC50 (Cytochrome P450 2C19): 13 µM; inhibition (INH) [1]: 74%; IC50 (Cytochrome P450 2C9): > 40 µM; Activity (Mus musculus [3]): 74% |
